{"source": "patent US5955500A", "about": "(G. D. Searle & Co., priority 1997, dated 1999)", "key": {"canine heart": {"system": "canine heart", "conditions": "for AH time / Heart rate / Mean arterial pressure: mean ± SE", "experimental": "Fourteen adult mongrel dogs of either sex weighing between 19 and 25 kg were prepared for chronic electrophysiologic investigation by implanting epicardial electrodes and an indwelling aortic catheter. The dogs were fasted overnight and initially anesthetized with halothane on the day of surgery. After tracheal intubation, anesthesia was maintained with isoflurane and oxygen via positive pressure ventilation to keep end tidal carbon dioxide within the normal range. Muscular relaxation was induced by pancuronium. A right thoracotomy was performed in the fifth intercostal space. Three bipolar electrode pairs were sutured to the epicardial surface of the right atrial appendage and on the right and left ventricular apex (FIG. 5). A bipolar electrode was sutured to the right atrium close to the anatomical region of the sinoatrial node. A bipolar plunge electrode was placed into base of the interventricular septum to record a His bundle electrogram. An indwelling arterial catheter was placed into the aorta through the left femoral artery after surgical exposure of the artery at the inner side of the hind limb. All electrode leads were subcutaneously tunneled and exited through the skin between the scapulae. Incisions were closed in anatomic fashion and standard postoperative methods of analgesia were provided with 0.015 mg/kg of buprenorphine (Buprenex®, Reckitt & Colman, Hull, UK) and two times of 25 mg/kg cefazolin (Cefazolin Sodium®, SoloPak Laboratories, Elk Groove Village, Ill.) and dogs were allowed to recover from surgery for a period of seven days prior to testing.\nElectrical signals from the bipolar electrodes, after suitable amplification in a custom built preamplifier (gain 1000), were filtered in a separate custom designed and built common mode rejection amplifier with a bandpass filter of 10-1000 Hz and individually adjusted for signal strength (maximal gain 400). […] Right atrial appendage (RA), right ventricular apex (RVA) and His bundle electrograms (HB) were recorded, simultaneously. […] All measurements of conduction times were made during spontaneous sinus rhythm.\nThe His bundle electrode (HBE) was advanced into the base of the interatrial septum from the aortic root. The electrode was advanced from a point located just behind and to the right of the origin of the right coronary artery. The HBE was slowly advanced parallel to the aorta, inferiorly and slightly anteriorly until a well discernible His potential was recorded. AV conduction (AH) interval was measured as the time difference (ms) between the onset of the initial rapid deflection in the RA electrogram to the beginning of the His potential in the HB electrogram. His-ventricular (HV) conduction time interval (ms) was measured from the beginning of the His potential (HBE) to the initial deflection of the QRS complex wave (earliest left ventricular activation) in a simultaneously recorded surface ECG lead II.\nAs an indicator of automaticity, sinus node recovery time (SNRT) was determined by pacing the right atrial appendage (30 s at 180 and 200 beats/min at 2 msec pulse duration; 2×threshold). SNRT was measured from the last pacing spike to the first spontaneous atrial activity on the His bundle electrogram after cessation of pacing (ms).\nA timed extrastimulus (S2) was delivered 300 ms after the preceding pacing spike (S1).\nVerapamil was dissolved in 5% dextrose and water ([…]).\nDuring the postoperative period, each dog was trained to stand quietly in a sling during electrophysiological monitoring. Prior to measurement, electrical signals in each dog were monitored to verify the absence of spontaneous arrhythmias other-than normal respiratory sinus arrhythmias.\nFrom the resting dog, 5 channel records were obtained at a sampling rate of 1 kHz per channel for 7 min to determine the following conduction intervals: AH, HV, QRS, QT and HR. A corrected QT interval [QTc=QT interval in ms/ (R-R interval in s)^1/2 ] was also calculated."}, "[1]": {"system": "isolated working rat heart", "conditions": "R 950 ng/ml"}, "[2]": {"system": "isolated working rat heart"}, "[3]": {"system": "isolated working rat heart", "remark": "listed apart in the source"}}, "note": "Read-outs that look alike come from different tables or passages of the source.", "data": [{"smiles": "COc1ccc(CCN(C)CCC[C@](C#N)(c2ccc(OC)c(OC)c2)C(C)C)cc1OC", "note": "[R-verapamil, reference compound]", "values": [{"measurement": "AH time", "setting": "canine heart; 0.1 mg/kg i.v., 0 min", "result": "88 ± 5", "unit": "ms"}, {"measurement": "Heart rate", "setting": "canine heart; 0.1 mg/kg i.v., 0 min", "result": "103 ± 9", "unit": "beats per min"}, {"measurement": "Mean arterial pressure", "setting": "canine heart; 0.1 mg/kg i.v., 0 min", "result": "94 ± 3", "unit": "mmHg"}, {"measurement": "AH time", "setting": "canine heart; 0.1 mg/kg i.v., 1 min", "result": "94 ± 4", "unit": "ms"}, {"measurement": "Heart rate", "setting": "canine heart; 0.1 mg/kg i.v., 1 min", "result": "95 ± 7", "unit": "beats per min"}, {"measurement": "Mean arterial pressure", "setting": "canine heart; 0.1 mg/kg i.v., 1 min", "result": "95 ± 3", "unit": "mmHg"}, {"measurement": "AH time", "setting": "canine heart; 0.1 mg/kg i.v., 2 min", "result": "93 ± 5", "unit": "ms"}, {"measurement": "Heart rate", "setting": "canine heart; 0.1 mg/kg i.v., 2 min", "result": "98 ± 8", "unit": "beats per min"}, {"measurement": "Mean arterial pressure", "setting": "canine heart; 0.1 mg/kg i.v., 2 min", "result": "95 ± 2", "unit": "mmHg"}, {"measurement": "AH time", "setting": "canine heart; 0.1 mg/kg i.v., 3 min", "result": "93 ± 5", "unit": "ms"}, {"measurement": "Heart rate", "setting": "canine heart; 0.1 mg/kg i.v., 3 min", "result": "93 ± 7", "unit": "beats per min"}, {"measurement": "Mean arterial pressure", "setting": "canine heart; 0.1 mg/kg i.v., 3 min", "result": "95 ± 3", "unit": "mmHg"}, {"measurement": "AH time", "setting": "canine heart; 0.1 mg/kg i.v., 4 min", "result": "95 ± 5", "unit": "ms"}, {"measurement": "Heart rate", "setting": "canine heart; 0.1 mg/kg i.v., 4 min", "result": "91 ± 8", "unit": "beats per min"}, {"measurement": "Mean arterial pressure", "setting": "canine heart; 0.1 mg/kg i.v., 4 min", "result": "95 ± 3", "unit": "mmHg"}, {"measurement": "AH time", "setting": "canine heart; 0.1 mg/kg i.v., 5 min", "result": "95 ± 5", "unit": "ms"}, {"measurement": "Heart rate", "setting": "canine heart; 0.1 mg/kg i.v., 5 min", "result": "92 ± 8", "unit": "beats per min"}, {"measurement": "Mean arterial pressure", "setting": "canine heart; 0.1 mg/kg i.v., 5 min", "result": "95 ± 3", "unit": "mmHg"}, {"measurement": "AH time", "setting": "canine heart; 0.2 mg/kg i.v., 0 min", "result": "93 ± 4", "unit": "ms"}, {"measurement": "Heart rate", "setting": "canine heart; 0.2 mg/kg i.v., 0 min", "result": "106 ± 7", "unit": "beats per min"}, {"measurement": "Mean arterial pressure", "setting": "canine heart; 0.2 mg/kg i.v., 0 min", "result": "90 ± 3", "unit": "mmHg"}, {"measurement": "AH time", "setting": "canine heart; 0.2 mg/kg i.v., 1 min", "result": "99 ± 5", "unit": "ms"}, {"measurement": "Heart rate", "setting": "canine heart; 0.2 mg/kg i.v., 1 min", "result": "104 ± 8", "unit": "beats per min"}, {"measurement": "Mean arterial pressure", "setting": "canine heart; 0.2 mg/kg i.v., 1 min", "result": "97 ± 3", "unit": "mmHg"}, {"measurement": "AH time", "setting": "canine heart; 0.2 mg/kg i.v., 2 min", "result": "97 ± 5", "unit": "ms"}, {"measurement": "Heart rate", "setting": "canine heart; 0.2 mg/kg i.v., 2 min", "result": "99 ± 9", "unit": "beats per min"}, {"measurement": "Mean arterial pressure", "setting": "canine heart; 0.2 mg/kg i.v., 2 min", "result": "97 ± 3", "unit": "mmHg"}, {"measurement": "AH time", "setting": "canine heart; 0.2 mg/kg i.v., 3 min", "result": "98 ± 4", "unit": "ms"}, {"measurement": "Heart rate", "setting": "canine heart; 0.2 mg/kg i.v., 3 min", "result": "102 ± 9", "unit": "beats per min"}, {"measurement": "Mean arterial pressure", "setting": "canine heart; 0.2 mg/kg i.v., 3 min", "result": "94 ± 2", "unit": "mmHg"}, {"measurement": "AH time", "setting": "canine heart; 0.2 mg/kg i.v., 4 min", "result": "98 ± 4", "unit": "ms"}, {"measurement": "Heart rate", "setting": "canine heart; 0.2 mg/kg i.v., 4 min", "result": "96 ± 8", "unit": "beats per min"}, {"measurement": "Mean arterial pressure", "setting": "canine heart; 0.2 mg/kg i.v., 4 min", "result": "96 ± 2", "unit": "mmHg"}, {"measurement": "AH time", "setting": "canine heart; 0.2 mg/kg i.v., 5 min", "result": "99 ± 5", "unit": "ms"}, {"measurement": "Heart rate", "setting": "canine heart; 0.2 mg/kg i.v., 5 min", "result": "95 ± 9", "unit": "beats per min"}, {"measurement": "Mean arterial pressure", "setting": "canine heart; 0.2 mg/kg i.v., 5 min", "result": "92 ± 2", "unit": "mmHg"}, {"measurement": "AH time", "setting": "canine heart; 0.4 mg/kg i.v., 0 min", "result": "97 ± 4", "unit": "ms"}, {"measurement": "Heart rate", "setting": "canine heart; 0.4 mg/kg i.v., 0 min", "result": "123 ± 5", "unit": "beats per min"}, {"measurement": "Mean arterial pressure", "setting": "canine heart; 0.4 mg/kg i.v., 0 min", "result": "86 ± 2", "unit": "mmHg"}, {"measurement": "AH time", "setting": "canine heart; 0.4 mg/kg i.v., 1 min", "result": "106 ± 5", "unit": "ms"}, {"measurement": "Heart rate", "setting": "canine heart; 0.4 mg/kg i.v., 1 min", "result": "108 ± 6", "unit": "beats per min"}, {"measurement": "Mean arterial pressure", "setting": "canine heart; 0.4 mg/kg i.v., 1 min", "result": "94 ± 2", "unit": "mmHg"}, {"measurement": "AH time", "setting": "canine heart; 0.4 mg/kg i.v., 2 min", "result": "106 ± 4", "unit": "ms"}, {"measurement": "Heart rate", "setting": "canine heart; 0.4 mg/kg i.v., 2 min", "result": "109 ± 5", "unit": "beats per min"}, {"measurement": "Mean arterial pressure", "setting": "canine heart; 0.4 mg/kg i.v., 2 min", "result": "98 ± 3", "unit": "mmHg"}, {"measurement": "AH time", "setting": "canine heart; 0.4 mg/kg i.v., 3 min", "result": "104 ± 4", "unit": "ms"}, {"measurement": "Heart rate", "setting": "canine heart; 0.4 mg/kg i.v., 3 min", "result": "106 ± 7", "unit": "beats per min"}, {"measurement": "Mean arterial pressure", "setting": "canine heart; 0.4 mg/kg i.v., 3 min", "result": "97 ± 3", "unit": "mmHg"}, {"measurement": "AH time", "setting": "canine heart; 0.4 mg/kg i.v., 4 min", "result": "104 ± 5", "unit": "ms"}, {"measurement": "Heart rate", "setting": "canine heart; 0.4 mg/kg i.v., 4 min", "result": "108 ± 7", "unit": "beats per min"}, {"measurement": "Mean arterial pressure", "setting": "canine heart; 0.4 mg/kg i.v., 4 min", "result": "99 ± 3", "unit": "mmHg"}, {"measurement": "AH time", "setting": "canine heart; 0.4 mg/kg i.v., 5 min", "result": "105 ± 5", "unit": "ms"}, {"measurement": "Heart rate", "setting": "canine heart; 0.4 mg/kg i.v., 5 min", "result": "111 ± 6", "unit": "beats per min"}, {"measurement": "Mean arterial pressure", "setting": "canine heart; 0.4 mg/kg i.v., 5 min", "result": "98 ± 3", "unit": "mmHg"}, {"measurement": "Interaction between MAP and HR (multiple linear regression), in words", "setting": "canine heart; increase in HR against drop in MAP", "result": "least increase in heart rate measured against a drop in blood pressure"}, {"measurement": "Effect on peak systolic pressure (PSP), in words", "setting": "[1]", "result": "no apparent effect on PSP"}, {"measurement": "Nature of cardiac effect (inotropic / chronotropic)", "setting": "[1]; S 100 ng/ml", "result": "primarily chronotropic"}, {"measurement": "Peak systolic pressure (PSP), significance vs predrug", "setting": "[1]; S 100 ng/ml, R/S ratio 9.5", "result": "n.s."}, {"measurement": "Peak systolic pressure (PSP), significance vs predrug", "setting": "[2]; R alone, R1-R4 (50-950 ng/ml cumulative)", "result": "n.s."}, {"measurement": "Cardiac output change, in words", "setting": "[2]; R exceeding 200 ng/ml (R2)", "result": "Cardiac output appears to increase"}, {"measurement": "Cardiac output (CO), significance vs baseline", "setting": "[3]; R1 (50 ng/ml)", "result": "n.s."}, {"measurement": "Heart rate (HR), significance vs baseline", "setting": "[3]; R1 (50 ng/ml)", "result": "n.s."}, {"measurement": "Peak systolic pressure (PSP), significance vs baseline", "setting": "[3]; R1 (50 ng/ml)", "result": "n.s."}, {"measurement": "Cardiac output (CO), significance vs baseline", "setting": "[3]; R2 (200 ng/ml)", "result": "n.s."}, {"measurement": "Heart rate (HR), significance vs baseline", "setting": "[3]; R2 (200 ng/ml)", "result": "n.s."}, {"measurement": "Peak systolic pressure (PSP), significance vs baseline", "setting": "[3]; R2 (200 ng/ml)", "result": "n.s."}, {"measurement": "Cardiac output (CO), significance vs baseline", "setting": "[3]; R3 (450 ng/ml)", "result": "n.s."}, {"measurement": "Heart rate (HR), significance vs baseline", "setting": "[3]; R3 (450 ng/ml)", "result": "n.s."}, {"measurement": "Peak systolic pressure (PSP), significance vs baseline", "setting": "[3]; R3 (450 ng/ml)", "result": "n.s."}, {"measurement": "Peak systolic pressure (PSP), significance vs baseline", "setting": "[3]; R4 (950 ng/ml)", "result": "n.s."}, {"measurement": "Effect on peak systolic pressure (PSP), in words", "setting": "[3]; increasing levels of R", "result": "remains unaffected by increasing levels of R"}]}]}
